The record followed here is publication PMC7774954, “Interactomic affinity profiling by holdup assay: Acetylation and distal residues impact the PDZome-binding specificity of PTEN phosphatase” (PLoS ONE, 2020).

Assay [1] deals with DLG5-1. Kind of assay: Holdup assay, DLG5-1. Format: binding, human.
Assay [2] concerns the target T1, SCRIB-3 (Homo sapiens, UniProt Q14160).
T1 construct: Representative holdup data recorded for three PDZ domains (MAST2-1, HTRA1-1, SCRIB-3); made in house; host or cells: E. coli
T1 sequence (Q14160 1004-1093 limits assumed): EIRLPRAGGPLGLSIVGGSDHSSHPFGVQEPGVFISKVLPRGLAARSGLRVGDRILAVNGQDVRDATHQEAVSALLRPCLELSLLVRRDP
The assay is described as follows: Competitive FP, SCRIB-3. The conditions noted are these: SCRIB-3 + 50 nM f16E6. It is filed as binding. The protocol:
Protein concentrations were determined by far-UV absorption spectroscopy. A detailed protocol has been published previously.

For assay [3], the target named is GORASP1-1 (Homo sapiens, UniProt Q9BQQ3). The assay is described as follows: Holdup assay, GORASP1-1. Format: binding.
Chain of GORASP1-1 (Q9BQQ3 2-440): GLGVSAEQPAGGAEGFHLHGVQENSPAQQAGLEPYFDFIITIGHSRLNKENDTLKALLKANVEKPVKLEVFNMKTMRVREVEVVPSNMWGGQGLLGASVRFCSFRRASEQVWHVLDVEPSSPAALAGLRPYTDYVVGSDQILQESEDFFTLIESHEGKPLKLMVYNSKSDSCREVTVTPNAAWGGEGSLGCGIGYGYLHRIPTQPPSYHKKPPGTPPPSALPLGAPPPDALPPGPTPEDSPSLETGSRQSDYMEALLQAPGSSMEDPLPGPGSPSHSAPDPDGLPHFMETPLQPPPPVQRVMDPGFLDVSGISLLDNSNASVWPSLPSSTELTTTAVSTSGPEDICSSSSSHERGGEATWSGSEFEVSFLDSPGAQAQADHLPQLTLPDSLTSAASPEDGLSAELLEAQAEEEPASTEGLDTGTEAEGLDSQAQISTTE
Assay [4] relates to DEPTOR-1. The assay is described as follows: Holdup assay, DEPTOR-1. Format: binding, human.
The subject of assay [5] is APBA1-1. Kind of assay: Holdup assay, APBA1-1. Format: binding, human.
The test system of assay [6] is LNX1-1. The assay is described as follows: Holdup assay, LNX1-1. It is filed as binding, human.
Assay [7] concerns CNKSR2-1. The assay is described as follows: Holdup assay, CNKSR2-1. Format: binding, human.
Assay [8] deals with APBA2-1. Kind of assay: Holdup assay, APBA2-1. Format: binding, human.
For assay [9], the target named is T2, CNKSR1-1 (Homo sapiens, UniProt Q969H4).
T2 sequence (Q969H4 1-720): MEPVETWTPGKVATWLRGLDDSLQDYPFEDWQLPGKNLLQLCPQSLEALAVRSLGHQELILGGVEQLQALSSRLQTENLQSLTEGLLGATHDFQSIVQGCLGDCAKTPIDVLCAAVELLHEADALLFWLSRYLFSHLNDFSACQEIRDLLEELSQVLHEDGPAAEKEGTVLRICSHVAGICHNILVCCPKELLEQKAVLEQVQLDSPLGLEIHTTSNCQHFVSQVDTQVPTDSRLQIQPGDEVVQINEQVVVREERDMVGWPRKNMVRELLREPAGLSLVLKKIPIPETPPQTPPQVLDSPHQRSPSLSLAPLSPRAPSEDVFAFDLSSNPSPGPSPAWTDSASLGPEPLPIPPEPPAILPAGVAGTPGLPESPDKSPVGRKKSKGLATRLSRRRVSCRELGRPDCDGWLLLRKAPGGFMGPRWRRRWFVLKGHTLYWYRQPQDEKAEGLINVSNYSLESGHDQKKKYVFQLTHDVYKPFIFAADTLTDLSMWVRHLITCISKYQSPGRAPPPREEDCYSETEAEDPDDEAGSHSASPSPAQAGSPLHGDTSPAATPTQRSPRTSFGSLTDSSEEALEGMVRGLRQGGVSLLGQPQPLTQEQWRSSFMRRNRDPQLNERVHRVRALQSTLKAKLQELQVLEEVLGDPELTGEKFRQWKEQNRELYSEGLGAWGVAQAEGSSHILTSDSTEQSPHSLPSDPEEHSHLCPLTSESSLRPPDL
Kind of assay: Holdup assay, CNKSR1-1. Format: binding.

Assay [10] concerns GRIP2-6. The assay is described as follows: Holdup assay, GRIP2-6. It is filed as binding, human.
Assay [11] concerns the target MPDZ-10 (Homo sapiens, UniProt O75970). The assay is described as follows: Holdup assay, MPDZ-10. It is filed as binding.
Assay [12] has as its target T3, PTPN13 PDZ 4 (Homo sapiens, UniProt Q12923).
T3 construct: made in house; host or cells: E. coli
T3 sequence (Q12923 1788-1868 limits assumed): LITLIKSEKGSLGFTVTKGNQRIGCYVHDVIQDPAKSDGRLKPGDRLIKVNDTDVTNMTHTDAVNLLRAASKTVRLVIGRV
Kind of assay: Holdup assay, PTPN13-4. Format: binding. The conditions noted are these: for BI: PDZ domain PTPN13-4. The protocol:
The holdup assay was performed on a Tecan freedom Evo200 robot with 384-well plates in singlicate for the three 11-mer PTEN variants and the 13-mer PTEN peptide as described in [31, 32]. Briefly, prior to interaction assay, 2.5 μL of streptavidin resin was saturated in each well with 20 μL of biotinylated PBM peptides (42 μM) and then washed twice with an excess of free biotin, while the reference resin was incubated only with biotin. Right before the holdup experiment, the PDZ library was spiked with an internal standard of lysozyme. Then, the biotin- or PBM-saturated resin was incubated, each in a distinct well of a 384-well plate, with complete cell lysates diluted so that the concentration of the tag-PDZ present in the crude extract is adjusted at 4 μM. After a sufficient time to reach complex equilibrium (15 min.), a fast and mild filtration step is performed and the tag-PDZ concentrations were measured by capillary electrophoresis instrument (LabChip GXII, PerkinElmer, Massachusets, USA). Standard markers were used to convert migration time into molecular weight on the LabChip software and inappropriate molecular weight markers were corrected or excluded.
For filtered data, the BI was extracted with the following equation (Eq 1) that estimates the depleted fraction after superimposition of the sample and reference electropherograms: BI=Iref−Ilig/Iref (1) where Iref and Ilig are the intensities of the tag-PDZ peaks measured, for each PDZ domain/PBM peptide interaction pair, in the biotin reference and the PBM electropherograms, respectively.
BIs were transformed into dissociation constants (KD) using the following formula: KD=([PDZtot]−BI·[PDZtot])·([PBMtot]−BI·[PDZtot])/BI·[PDZtot] (2) where [PDZtot] and [PBMtot] correspond to the total concentrations of the PDZ domain (usually around 4 μM) and the PBM peptide used during the assay. Since the PBMtot concentration in the resin during the holdup assay parameter may differ from one peptide to another and remains unknown, it is impossible to directly convert BI values into KD constants. We systematically determined the KD constants for a subset of PDZ/PBM pairs by competitive FP. […] For each PBM, the average peptide concentration was calculated after outlier rejection based on the absolute distances from the median as compared to three times the standard deviation (3σ rule), with never more than 2 values rejected.

Assay [13] concerns the target APBA1-2 (Homo sapiens, UniProt Q02410). The assay is described as follows: Holdup assay, APBA1-2. It is filed as binding.
Assay [14] addresses GRID2IP-2 (Homo sapiens, UniProt A4D2P6). Kind of assay: Holdup assay, GRID2IP-2. It is filed as binding.
For assay [15], the target named is LNX1-4 (Homo sapiens, UniProt Q8TBB1). The assay is described as follows: Holdup assay, LNX1-4. Format: binding.
Chain of LNX1-4 (Q8TBB1 638-723): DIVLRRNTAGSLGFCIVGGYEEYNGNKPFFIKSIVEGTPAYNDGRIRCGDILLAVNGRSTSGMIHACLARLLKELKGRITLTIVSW
The subject of assay [16] is MAGI1-4. The assay is described as follows: Holdup assay, MAGI1-4. It is filed as binding, human.
Assay [17] has as its system GRIP2-2. Kind of assay: Holdup assay, GRIP2-2. It is filed as binding, human.

*1 amine or outer side, *2 acyl side, *3 side chain or, on linkers, in order; H or OH if unused. Where a SMILES comes first, the peptide text is derived from it. The star is where a group is joined. X1 = O=C(CCCC[C@@H]1SC[C@@H]2NC(=O)N[C@@H]21)NCCCOCCOCCOCCCN*; Suc = O=C(CCC(=O)[*:2])[*:1]

Chain of MPDZ-10 (O75970 whole entry): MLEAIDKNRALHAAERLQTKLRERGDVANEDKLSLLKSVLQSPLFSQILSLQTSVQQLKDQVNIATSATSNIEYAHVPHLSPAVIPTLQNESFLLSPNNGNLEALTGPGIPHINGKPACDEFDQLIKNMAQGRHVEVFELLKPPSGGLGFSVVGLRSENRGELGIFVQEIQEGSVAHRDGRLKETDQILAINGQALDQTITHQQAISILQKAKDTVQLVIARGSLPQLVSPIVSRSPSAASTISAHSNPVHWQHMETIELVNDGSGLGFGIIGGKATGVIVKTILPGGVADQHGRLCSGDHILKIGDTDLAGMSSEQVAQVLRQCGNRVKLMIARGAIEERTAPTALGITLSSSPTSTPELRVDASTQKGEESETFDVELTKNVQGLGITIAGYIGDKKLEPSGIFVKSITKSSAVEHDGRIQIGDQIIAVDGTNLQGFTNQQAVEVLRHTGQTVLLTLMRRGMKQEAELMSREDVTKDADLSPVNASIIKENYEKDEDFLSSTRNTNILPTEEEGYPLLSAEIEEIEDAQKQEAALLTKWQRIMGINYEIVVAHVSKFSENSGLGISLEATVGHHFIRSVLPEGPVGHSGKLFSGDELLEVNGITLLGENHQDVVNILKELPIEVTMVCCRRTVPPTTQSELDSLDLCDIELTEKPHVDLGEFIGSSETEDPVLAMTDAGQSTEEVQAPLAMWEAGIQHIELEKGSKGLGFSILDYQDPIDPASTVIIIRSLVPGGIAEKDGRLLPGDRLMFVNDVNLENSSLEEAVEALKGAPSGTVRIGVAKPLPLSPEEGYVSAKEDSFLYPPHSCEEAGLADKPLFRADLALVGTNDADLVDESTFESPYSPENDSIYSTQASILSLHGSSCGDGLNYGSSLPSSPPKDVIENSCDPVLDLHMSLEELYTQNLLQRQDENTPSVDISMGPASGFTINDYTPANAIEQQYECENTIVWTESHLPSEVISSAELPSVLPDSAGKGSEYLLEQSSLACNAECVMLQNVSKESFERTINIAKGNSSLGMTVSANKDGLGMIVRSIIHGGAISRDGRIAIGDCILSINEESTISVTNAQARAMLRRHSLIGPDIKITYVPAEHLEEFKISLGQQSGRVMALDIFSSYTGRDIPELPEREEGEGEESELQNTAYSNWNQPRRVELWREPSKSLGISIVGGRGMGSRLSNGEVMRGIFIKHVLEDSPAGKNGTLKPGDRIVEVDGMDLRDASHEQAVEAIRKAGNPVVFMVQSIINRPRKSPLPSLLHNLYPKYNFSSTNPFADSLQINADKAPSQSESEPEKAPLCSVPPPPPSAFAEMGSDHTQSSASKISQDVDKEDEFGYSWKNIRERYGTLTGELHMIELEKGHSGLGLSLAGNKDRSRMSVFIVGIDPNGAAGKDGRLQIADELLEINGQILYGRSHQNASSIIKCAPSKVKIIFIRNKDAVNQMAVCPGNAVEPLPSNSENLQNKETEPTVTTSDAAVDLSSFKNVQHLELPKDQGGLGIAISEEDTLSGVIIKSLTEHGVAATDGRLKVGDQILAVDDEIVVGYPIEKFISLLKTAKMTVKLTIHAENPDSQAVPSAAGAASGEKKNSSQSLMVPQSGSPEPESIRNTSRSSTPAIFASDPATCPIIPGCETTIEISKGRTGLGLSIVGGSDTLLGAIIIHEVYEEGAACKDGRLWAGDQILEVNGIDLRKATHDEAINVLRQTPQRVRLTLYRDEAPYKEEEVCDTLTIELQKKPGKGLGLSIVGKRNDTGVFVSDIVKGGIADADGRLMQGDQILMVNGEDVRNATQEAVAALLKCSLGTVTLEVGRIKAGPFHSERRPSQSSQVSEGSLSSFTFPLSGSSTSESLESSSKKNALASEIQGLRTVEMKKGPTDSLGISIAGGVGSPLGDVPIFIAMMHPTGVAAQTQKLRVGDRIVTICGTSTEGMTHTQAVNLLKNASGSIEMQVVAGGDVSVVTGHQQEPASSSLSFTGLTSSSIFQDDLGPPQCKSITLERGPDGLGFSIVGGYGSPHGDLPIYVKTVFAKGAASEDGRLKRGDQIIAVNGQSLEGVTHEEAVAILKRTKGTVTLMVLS
Chain of GRID2IP-2 (A4D2P6 whole entry): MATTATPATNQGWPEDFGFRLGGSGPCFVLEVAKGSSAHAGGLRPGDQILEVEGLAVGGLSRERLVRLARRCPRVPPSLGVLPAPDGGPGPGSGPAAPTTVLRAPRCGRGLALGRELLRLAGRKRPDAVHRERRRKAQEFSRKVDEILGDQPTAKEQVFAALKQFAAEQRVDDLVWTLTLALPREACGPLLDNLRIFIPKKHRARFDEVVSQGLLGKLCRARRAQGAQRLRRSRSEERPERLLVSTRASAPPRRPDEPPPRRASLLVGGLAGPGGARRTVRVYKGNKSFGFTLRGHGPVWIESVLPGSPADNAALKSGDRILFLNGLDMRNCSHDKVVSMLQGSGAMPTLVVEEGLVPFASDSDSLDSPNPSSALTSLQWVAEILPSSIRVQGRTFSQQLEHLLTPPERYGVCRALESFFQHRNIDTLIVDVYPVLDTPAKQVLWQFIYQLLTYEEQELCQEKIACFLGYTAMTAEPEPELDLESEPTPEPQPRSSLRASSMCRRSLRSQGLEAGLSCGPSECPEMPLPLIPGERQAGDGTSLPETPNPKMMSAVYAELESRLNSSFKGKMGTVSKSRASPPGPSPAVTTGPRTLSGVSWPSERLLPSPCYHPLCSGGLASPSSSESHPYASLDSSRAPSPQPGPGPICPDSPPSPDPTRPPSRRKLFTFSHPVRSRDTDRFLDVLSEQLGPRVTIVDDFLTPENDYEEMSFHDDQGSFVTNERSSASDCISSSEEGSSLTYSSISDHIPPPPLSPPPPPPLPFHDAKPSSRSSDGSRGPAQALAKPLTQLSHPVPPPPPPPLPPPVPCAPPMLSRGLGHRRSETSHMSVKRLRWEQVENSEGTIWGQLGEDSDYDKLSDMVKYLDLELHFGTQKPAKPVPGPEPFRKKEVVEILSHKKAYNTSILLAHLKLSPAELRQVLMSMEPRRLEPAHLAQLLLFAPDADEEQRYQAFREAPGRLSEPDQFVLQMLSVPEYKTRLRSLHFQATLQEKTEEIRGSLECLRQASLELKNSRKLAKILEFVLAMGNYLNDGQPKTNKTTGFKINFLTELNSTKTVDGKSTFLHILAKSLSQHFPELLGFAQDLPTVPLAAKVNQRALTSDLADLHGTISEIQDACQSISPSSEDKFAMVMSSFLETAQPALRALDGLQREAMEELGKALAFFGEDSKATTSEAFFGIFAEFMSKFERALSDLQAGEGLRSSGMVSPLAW
Chain of APBA1-2 (Q02410 747-822): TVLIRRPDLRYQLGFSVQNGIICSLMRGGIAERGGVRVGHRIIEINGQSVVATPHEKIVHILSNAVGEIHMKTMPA

In assay [1], `CC[C@H](C)[C@H](NC(=O)[C@H](CCC(N)=O)NC(=O)[C@@H](NC(=O)[C@H](Cc1c[nH]cn1)NC(=O)[C@H](CCC(N)=O)NC(=O)[C@H](CC(=O)O)NC(=O)[C@H](CCC(=O)O)NC(=O)[C@H](CC(=O)O)NC(=O)CCC(=O)NCCCOCCOCCOCCCNC(=O)CCCC[C@@H]1SC[C@@H]2NC(=O)N[C@@H]21)[C@@H](C)O)C(=O)N[C@H](C(=O)N[C@@H](CCCCN)C(=O)N[C@H](C(=O)O)C(C)C)[C@@H](C)O` [PTEN_11] registered a BI of -0.042 and a LogKD of 3.519. In addition, in assay [2], the “binding by holdup and competitive FP (in words)” value is on record as “non-binding”. In [3], this compound had a BI of 0.037 and a LogKD of 3.519.

With `CC[C@H](C)[C@H](NC(=O)[C@H](CCC(N)=O)NC(=O)[C@@H](NC(=O)[C@H](Cc1c[nH]cn1)NC(=O)[C@H](CCC(N)=O)NC(=O)[C@H](CC(=O)O)NC(=O)[C@H](CCC(=O)O)NC(=O)[C@H](CC(=O)O)NC(=O)[C@H](Cc1ccccc1)NC(=O)[C@@H]1CCCN1C(=O)CCC(=O)NCCCOCCOCCOCCCNC(=O)CCCC[C@@H]1SC[C@@H]2NC(=O)N[C@@H]21)[C@@H](C)O)C(=O)N[C@H](C(=O)N[C@@H](CCCCN)C(=O)N[C@H](C(=O)O)C(C)C)[C@@H](C)O` [PTEN_13] ({X1-Suc}-PFDEDQHTQITKV-OH), the BI in [4] is reported as -0.005; in [5] it was -0.05; in assay [6], 0.021; in [7], -0.021; in assay [8] it was 0.029; in [9], -0.076. Also, the BI is -0.048 in [1]; -0.013 in [10]; 0.493 in assay [11]; 0.306 in assay [12]; 0.184 in [13]; -0.012 in assay [14]. Further, the BI in [3] was 0.076; in [15], 0.378; in assay [16], 0.094; in [17], -0.021. Besides, the LogKD in assay [9], in assay [14] and in [3] was 3.826 in each case. Also, the dissociation constant Kd in assay [11] is 15.5 µM; in [12] it was 35.8 µM; in assay [15], 25.5 µM.

Turning to `CC[C@H](C)[C@H](NC(=O)[C@H](CCC(N)=O)NC(=O)[C@@H](NC(=O)[C@H](Cc1c[nH]cn1)NC(=O)[C@H](CCC(N)=O)NC(=O)[C@H](CC(=O)O)NC(=O)[C@H](CCC(=O)O)NC(=O)[C@H](CC(=O)O)NC(=O)CCC(=O)NCCCOCCOCCOCCCNC(=O)CCCC[C@@H]1SC[C@@H]2NC(=O)N[C@@H]21)[C@@H](C)O)C(=O)N[C@H](C(=O)N[C@@H](CCCCNC(C)=O)C(=O)N[C@H](C(=O)O)C(C)C)[C@@H](C)O` [PTEN_Ac], the BI is reported as -0.046 in assay [4]; -0.002 in [5]; -0.029 in assay [8]; 0.116 in assay [9]; -0.005 in assay [1]; -0.084 in assay [10]. Besides, the BI in [11] is listed as 0.391; in [12], 0.707; in [3], 0.151. Besides, the LogKD in [4], in assay [5], in assay [8], in assay [1] and in [10] was 3.605 in each case. Moreover, the figures for the Kd in assay [11] and in assay [12] were 41.2 µM and 10.4 µM, respectively. Also, in assay [12] (PTPN13-4), the “binding of PTPN13-4 (in words)” value is “PTPN13-4 binds to PTEN_Ac”.

In [1], `CC[C@H](C)[C@H](NC(=O)[C@H](CCC(N)=O)NC(=O)[C@@H](NC(=O)[C@H](Cc1c[nH]cn1)NC(=O)[C@H](CCC(N)=O)NC(=O)[C@H](CC(=O)O)NC(=O)[C@H](CCC(=O)O)NC(=O)[C@H](CC(=O)O)NC(=O)CCC(=O)NCCCOCCOCCOCCCNC(=O)CCCC[C@@H]1SC[C@@H]2NC(=O)N[C@@H]21)[C@@H](C)O)C(=O)N[C@H](C(=O)N[C@@H](CCCNC(=N)N)C(=O)N[C@H](C(=O)O)C(C)C)[C@@H](C)O` [PTEN_KR] ({X1-Suc}-DEDQHTQITRV-OH) displayed a BI of -0.041 and a LogKD of 3.655. The BI in assay [3] is recorded as 0.122.

Usually Kd stands for a measure of binding affinity in units of concentration.
